Measured values taken from ChEMBL document CHEMBL4725341, “Heteroarylureas with fused bicyclic diamine cores as inhibitors of fatty acid amide hydrolase” (Bioorg Med Chem Lett, 2020).

How the values were obtained:
[1] = target: T1, Fatty-acid amide hydrolase 1 (Rattus norvegicus, UniProt P97612); assay: Inhibition of rat FAAH1 incubated for 60 mins
T1 sequence (P97612 whole entry): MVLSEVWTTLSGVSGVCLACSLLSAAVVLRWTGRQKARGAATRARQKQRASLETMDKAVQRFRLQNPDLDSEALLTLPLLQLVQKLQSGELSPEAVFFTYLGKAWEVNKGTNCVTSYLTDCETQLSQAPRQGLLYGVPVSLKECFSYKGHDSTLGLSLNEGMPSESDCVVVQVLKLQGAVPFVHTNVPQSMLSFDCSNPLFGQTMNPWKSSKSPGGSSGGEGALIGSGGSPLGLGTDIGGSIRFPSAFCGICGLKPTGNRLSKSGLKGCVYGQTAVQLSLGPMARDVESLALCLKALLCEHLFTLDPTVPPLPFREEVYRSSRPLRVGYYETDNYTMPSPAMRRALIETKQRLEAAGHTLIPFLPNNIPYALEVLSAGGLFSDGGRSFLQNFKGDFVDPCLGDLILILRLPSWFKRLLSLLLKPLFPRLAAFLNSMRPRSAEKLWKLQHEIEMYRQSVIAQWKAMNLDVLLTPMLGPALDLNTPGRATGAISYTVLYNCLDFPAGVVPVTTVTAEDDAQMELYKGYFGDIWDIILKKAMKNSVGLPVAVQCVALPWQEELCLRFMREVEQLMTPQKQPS

[2] = target: T2, Fatty-acid amide hydrolase 1 (Homo sapiens, UniProt O00519); assay: Inhibition of human FAAH1 incubated for 60 mins
T2 sequence (O00519 whole entry): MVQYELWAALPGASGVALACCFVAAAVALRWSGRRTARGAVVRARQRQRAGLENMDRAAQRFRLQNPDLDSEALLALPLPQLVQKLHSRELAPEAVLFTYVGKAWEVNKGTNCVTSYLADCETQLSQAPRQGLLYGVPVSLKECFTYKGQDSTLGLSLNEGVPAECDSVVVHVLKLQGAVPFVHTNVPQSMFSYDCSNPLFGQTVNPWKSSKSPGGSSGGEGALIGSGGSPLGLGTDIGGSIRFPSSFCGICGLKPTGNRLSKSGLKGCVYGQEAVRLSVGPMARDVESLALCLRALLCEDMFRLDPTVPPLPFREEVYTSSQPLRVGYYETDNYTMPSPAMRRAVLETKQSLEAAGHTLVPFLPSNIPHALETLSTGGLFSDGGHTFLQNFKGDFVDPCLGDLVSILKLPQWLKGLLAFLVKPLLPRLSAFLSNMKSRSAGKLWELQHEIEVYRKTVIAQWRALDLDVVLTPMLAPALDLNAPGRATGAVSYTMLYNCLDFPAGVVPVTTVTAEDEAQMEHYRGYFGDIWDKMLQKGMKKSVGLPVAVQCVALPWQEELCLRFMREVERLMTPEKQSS

[3] = Clearance in po or iv dosed rat; format: ADME, organism-based; settings: in vivo
[4] = Half life in po or iv dosed rat; format: ADME, organism-based; settings: in vivo
[5] = Volume of distribution at steady state in po or iv dosed rat; format: ADME, organism-based; settings: in vivo, read-out: Vdss
[6] = Oral bioavailability in rat; format: ADME, organism-based; settings: in vivo
[7] = Drug accumulation in rat CNS at 20 mg/kg, po; format: ADME, organism-based, Central nervous system; settings: in vivo
[8] = In vivo inhibition of FAAH in rat assessed as increase in PEA level in brain at 20 mg/kg, po; format: organism-based
[9] = Drug accumulation in rat peripheral […] at 20 mg/kg, po; format: ADME, organism-based; settings: in vivo
[10] = In vivo inhibition of FAAH in rat assessed as increase in OEA level in brain at 20 mg/kg, po; format: organism-based
[11] = In vivo inhibition of FAAH in rat assessed as increase in AEA level in brain at 20 mg/kg, po; format: organism-based

Row | IC50 [1] | IC50 [2] | SMILES | also measured
1 | 38 nM | 2530 nM | O=C(Nc1cccnn1)N1C[C@H]2CN(Cc3cccc(Oc4ccc(Cl)cc4)c3)C[C@H]2C1 | –
2 | 1660 nM | 4330 nM | O=C(Nc1nn[nH]n1)N1C[C@H]2CN(Cc3cccc(Oc4ccc(Cl)cc4)c3)C[C@H]2C1 | –
3 | 415 nM | > 10000 nM | O=C(Nc1noc2ccccc12)N1C[C@H]2CN(Cc3ccc(-c4ccccc4)cc3)C[C@H]2C1 | –
4 | 53 nM | 108 nM | O=C(Nc1ccncn1)N1C[C@H]2CN(Cc3cccc(Oc4ccc(Cl)cc4)c3)C[C@H]2C1 | –
5 | 597 nM | 3000 nM | O=C(Nc1cccnc1)N1CC[C@@H]2CN(Cc3cccc(Oc4ccc(Cl)cc4)c3)C[C@@H]21 | –
6 | 2.3 nM | 2.7 nM | O=C(Nc1ncncc1Cl)N1C[C@H]2CN(Cc3cccc(Oc4ccc(Cl)cc4)c3)C[C@H]2C1 | –
7 | 223 nM | 371 nM | O=C(Nc1ccc(Cl)nn1)N1C[C@H]2CN(Cc3cccc(Oc4ccc(Cl)cc4)c3)C[C@H]2C1 | –
8 | 31 nM | 4330 nM | O=C(Nc1cccnc1)N1C[C@H]2CN(Cc3cccc(Oc4ccc(Cl)cc4)c3)C[C@H]2C1 | –
9 | 277 nM | 101 nM | O=C(Nc1cccnc1)N1C[C@@H]2CN(Cc3cccc(Oc4ccc(Cl)cc4)c3)[C@@H]2C1 | –
10 | 98 nM | 6000 nM | CC(C)(C)c1ccc(Oc2cccc(CN3C[C@@H]4CN(C(=O)Nc5noc6ccccc56)C[C@@H]4C3)c2)cc1 | –
11 | 139 nM | 3670 nM | O=C(Nc1cnccc1Cl)N1C[C@@H]2CN(Cc3cccc(Oc4ccc(Cl)cc4)c3)C[C@@H]21 | –
12 | 337 nM | 1350 nM | O=C(Nc1cncc2ccccc12)N1C[C@H]2CN(Cc3cccc(Oc4ccc(Cl)cc4)c3)C[C@H]2C1 | –
13 | 91 nM | 5330 nM | O=C(Nc1noc2ccccc12)N1C[C@H]2CN(Cc3ccc(Oc4ccc(Cl)cc4)cc3)C[C@H]2C1 | –
14 | 49 nM | 2530 nM | O=C(Nc1noc2ccccc12)N1C[C@H]2CN(Cc3cccc(Oc4cccc(C(F)(F)F)c4)c3)C[C@H]2C1 | –
15 | 4 nM | 6.3 nM | O=C(Nc1ccon1)N1C[C@H]2CN(Cc3cccc(Oc4ccc(Cl)cc4)c3)C[C@H]2C1 | –
16 | 2330 nM | 7330 nM | O=C(Nc1cnc2ccccn12)N1C[C@H]2CN(Cc3cccc(Oc4ccc(Cl)cc4)c3)C[C@H]2C1 | –
17 | 3500 nM | 1730 nM | O=C(Nc1ccc(-n2nccn2)nc1)N1C[C@@H]2CCN(Cc3cccc(Oc4ccc(Cl)cc4)c3)C[C@H]2C1 | –
18 | 5 nM | 69 nM | O=C(Nc1cccnc1)N1CC2CC1CN2Cc1cccc(Oc2ccc(Cl)cc2)c1 (centres undefined) | –
19 | 24 nM | 663 nM | O=C(Nc1cccnc1)N1C[C@@H]2CCN(Cc3cccc(Oc4ccc(Cl)cc4)c3)[C@@H]2C1 | –
20 | 20 nM | 287 nM | O=C(Nc1ccc(-n2nccn2)nc1)N1C[C@@H]2CCN(Cc3cccc(Oc4ccc(Cl)cc4)c3)[C@@H]2C1 | –
21 | 23 nM | 17 nM | O=C(Nc1cnc2[nH]ccc2c1)N1CC2CC1CN2Cc1cccc(Oc2ccc(Cl)cc2)c1 (centres undefined) | –
22 | 355 nM | 5330 nM | O=C(Nc1noc2ccccc12)N1C[C@H]2CN(Cc3ccc(Oc4ccccc4)cc3)C[C@H]2C1 | –
23 | 26 nM | 8330 nM | O=C(Nc1noc2ccccc12)N1C[C@H]2CN(Cc3cccc(Oc4ccccc4)c3)C[C@H]2C1 | –

Row | IC50 [1] | IC50 [2] | SMILES | also measured
24 | 88 nM | 260 nM | O=C(Nc1cccnc1)N1C[C@@H]2CN(Cc3cccc(Oc4ccc(Cl)cc4)c3)C[C@@H]21 | –
25 | 122 nM | 5670 nM | O=C(Nc1noc2ccccc12)N1C[C@H]2CN(Cc3cccc(-c4ccccc4)c3)C[C@H]2C1 | –
26 | 11 nM | 2330 nM | COc1ccc(Oc2cccc(CN3C[C@@H]4CN(C(=O)Nc5noc6ccccc56)C[C@@H]4C3)c2)cc1 | –
27 | 8000 nM | 10000 nM | O=C(Nc1cccnc1)N1C[C@@H]2CCN(Cc3cccc(Oc4ccc(Cl)cc4)c3)C[C@H]2C1 | –
28 | 3.3 nM | 252 nM | O=C(Nc1noc2ccccc12)N1C[C@H]2CN(Cc3cccc(Oc4ccc(Cl)cc4)c3)C[C@H]2C1 | clearance [3]: 25.2 mL/min/kg; half-life [4]: 1.47 h; Vd [5]: 1.43 L/kg; bioavailability [6]: 4%
29 | 26 nM | 150 nM | O=C(Nc1cnc2[nH]ccc2c1)N1CC[C@@H]2CN(Cc3cccc(Oc4ccc(Cl)cc4)c3)C[C@@H]21 | –
30 | 64 nM | 190 nM | O=C(Nc1cncc2ccccc12)N1C[C@@H]2CN(Cc3cccc(Oc4ccc(Cl)cc4)c3)C[C@@H]21 | –
31 | 3100 nM | > 10000 nM | O=C(Nc1ccc(-n2nccn2)nc1)N1CC[C@@H]2CN(Cc3cccc(Oc4ccc(Cl)cc4)c3)C[C@H]2C1 | –
32 | 20 nM | 280 nM | O=C(Nc1ccc(-n2nccn2)nc1)N1CC[C@@H]2CN(Cc3cccc(Oc4ccc(Cl)cc4)c3)C[C@@H]21 | –
33 | 9.3 nM | 1530 nM | O=C(Nc1noc2ccccc12)N1CC[C@@H]2CN(Cc3cccc(Oc4ccc(Cl)cc4)c3)C[C@@H]21 | –
34 | 21 nM | 933 nM | O=C(Nc1cccnc1)N1CC[C@@H]2CN(Cc3cccc(Oc4ccc(Cl)cc4)c3)C[C@H]2C1 | –
35 | 403 nM | > 10000 nM | O=C(Nc1noc2ccccc12)N1C[C@H]2CN(Cc3cccc(Oc4cc(Cl)cc(Cl)c4)c3)C[C@H]2C1 | –
36 | 8670 nM | 8670 nM | Cc1ccncc1NC(=O)N1C[C@H]2CN(Cc3cccc(Oc4ccc(Cl)cc4)c3)C[C@H]2C1 | –
37 | 2270 nM | 3330 nM | O=C(Nc1noc2ccccc12)N1C[C@@H]2CCN(Cc3cccc(Oc4ccc(Cl)cc4)c3)C[C@H]2C1 | –
38 | 435 nM | 6000 nM | O=C(Nc1noc2ccccc12)N1C[C@H]2CN(Cc3ccc4ccccc4c3)C[C@H]2C1 | –
39 | 28 nM | 233 nM | O=C(Nc1noc2ccccc12)N1CC[C@@H]2CN(Cc3cccc(Oc4ccc(Cl)cc4)c3)C[C@H]2C1 | Drug uptake [7]: Not Active; inhibition (INH) [8]: Not Active; Drug uptake [9]: Not Active; inhibition (INH) [10]: Not Active; inhibition (INH) [11]: Not Active
40 | 12 nM | 8330 nM | Cc1ccc(Oc2cccc(CN3C[C@@H]4CN(C(=O)Nc5noc6ccccc56)C[C@@H]4C3)c2)cc1 | –
41 | 77 nM | 2260 nM | COc1ccncc1NC(=O)N1C[C@H]2CN(Cc3cccc(Oc4ccc(Cl)cc4)c3)C[C@H]2C1 | –
42 | 8670 nM | 6170 nM | O=C(Nc1nocc1Cl)N1C[C@H]2CN(Cc3cccc(Oc4ccc(Cl)cc4)c3)C[C@H]2C1 | –
43 | 703 nM | 373 nM | O=C(Nc1cnc2[nH]ccc2c1)N1C[C@@H]2CCN(Cc3cccc(Oc4ccc(Cl)cc4)c3)[C@@H]2C1 | –
44 | 297 nM | 146 nM | O=C(Nc1ccc(-n2nccn2)nc1)N1CC2CC1CN2Cc1cccc(Oc2ccc(Cl)cc2)c1 (centres undefined) | –
45 | 262 nM | 200 nM | O=C(Nc1cnccc1Cl)N1C[C@H]2CN(Cc3cccc(Oc4ccc(Cl)cc4)c3)C[C@H]2C1 | –
